# Laboratory results reported in ChEMBL document CHEMBL4007421, “Discovery and Preclinical Characterization of 3-((4-(4-Chlorophenyl)-7-fluoroquinoline-3-yl)sulfonyl)benzonitrile, a Novel Non-acetylenic Metabotropic Glutamate Receptor 5 (mGluR5) Negative Allosteric Modulator for Psychiatric Indications” (J Med Chem, 2017).
# Tested on: Liver
# Test: Intrinsic clearance in human liver microsomes at 2.5 uM assessed per gram of liver
# Format: ADME, microsome
row,Structure (SMILES),CLint
1,O=S(=O)(c1cc(F)cc(F)c1)c1cnc2c(F)cccc2c1-c1cccc(Cl)c1,0.64 mL/min/g
2,COc1ccc(-c2c(S(=O)(=O)c3ccc(F)cc3)cnc3cc(F)ccc23)cc1,1.77 mL/min/g
3,Cc1ccc(S(=O)(=O)c2cnc3c(F)cccc3c2-c2cccc(Cl)c2)cc1F,3.18 mL/min/g
4,O=S(=O)(c1ccc(F)c(F)c1)c1cnc2c(F)cccc2c1-c1cccc(F)c1,1.28 mL/min/g
5,COc1ccc(-c2c(S(=O)(=O)c3ccc(C)c(C)c3)cnc3cc(F)ccc23)cc1,4.13 mL/min/g
6,COc1cccc(-c2c(S(=O)(=O)c3ccc(C)c(C)c3)cnc3cc(F)ccc23)c1,8.78 mL/min/g
7,O=S(=O)(c1ccc(F)c(F)c1)c1cnc2cc(F)ccc2c1-c1cccc(Cl)c1,0.38 mL/min/g
8,O=S(=O)(c1cc(F)cc(F)c1)c1cnc2c(F)cccc2c1-c1cccc(F)c1,1.18 mL/min/g
9,COc1ccc(-c2c(S(=O)(=O)c3cc(F)cc(F)c3)cnc3cc(F)ccc23)cc1,1.51 mL/min/g
10,COc1cccc(-c2c(S(=O)(=O)c3cc(Cl)cc(Cl)c3)cnc3cc(F)ccc23)c1,1.51 mL/min/g
11,O=S(=O)(c1cccc(F)c1)c1cnc2cc(F)ccc2c1-c1ccc(F)cc1,0.11 mL/min/g
12,Cc1ccc(S(=O)(=O)c2cnc3cc(F)ccc3c2-c2cccc(F)c2)cc1C,3.71 mL/min/g
13,O=S(=O)(c1cc(F)cc(F)c1)c1cnc2c(F)cccc2c1-c1ccc(Cl)cc1,0.73 mL/min/g
14,COc1ccc(S(=O)(=O)c2cnc3c(F)cccc3c2-c2cccc(OC)c2)cc1,2.87 mL/min/g
15,COc1ccc(S(=O)(=O)c2cnc3cc(F)ccc3c2-c2ccc(Cl)cc2)cc1,1.28 mL/min/g
16,COc1ccc(S(=O)(=O)c2cnc3c(F)cccc3c2-c2cccc(F)c2)cc1,3.03 mL/min/g
17,O=S(=O)(c1ccc(F)c(Cl)c1)c1cnc2c(F)cccc2c1-c1ccccc1F,1.39 mL/min/g
18,COc1cccc(-c2c(S(=O)(=O)c3cc(F)cc(F)c3)cnc3cc(F)ccc23)c1,1.81 mL/min/g
19,COc1ccc(-c2c(S(=O)(=O)c3ccc(F)c(F)c3)cnc3cc(F)ccc23)cc1,1.1 mL/min/g
20,Cc1ccc(S(=O)(=O)c2cnc3cc(F)ccc3c2-c2ccc(Cl)cc2)cc1C,7.88 mL/min/g
21,Cc1ccc(S(=O)(=O)c2cnc3c(F)cccc3c2-c2ccc(F)cc2)cc1F,2.75 mL/min/g
22,N#Cc1cccc(S(=O)(=O)c2cnc3c(F)cccc3c2-c2ccc(F)cc2)c1,0.19 mL/min/g

row,Structure (SMILES),CLint
1,COc1ccc(S(=O)(=O)c2cnc3cc(F)ccc3c2-c2cccc(Cl)c2)cc1Cl,1.19 mL/min/g
2,N#Cc1cccc(S(=O)(=O)c2cnc3c(F)cccc3c2-c2cccc(F)c2)c1,0.34 mL/min/g
3,COc1cccc(-c2c(S(=O)(=O)c3cc(Cl)cc(Cl)c3)cnc3c(F)cccc23)c1,2.31 mL/min/g
4,N#Cc1cccc(S(=O)(=O)c2cnc3cc(F)ccc3c2-c2cccc(Cl)c2)c1,0.99 mL/min/g
5,COc1ccc(-c2c(S(=O)(=O)c3ccc(OC)cc3)cnc3c(F)cccc23)cc1,2.12 mL/min/g
6,O=S(=O)(c1cc(Cl)cc(Cl)c1)c1cnc2c(F)cccc2c1-c1cccc(F)c1,1.08 mL/min/g
7,O=S(=O)(c1cc(Cl)cc(Cl)c1)c1cnc2cc(F)ccc2c1-c1ccccc1F,0.93 mL/min/g
8,O=S(=O)(c1ccc(F)c(Cl)c1)c1cnc2cc(F)ccc2c1-c1cccc(F)c1,0.25 mL/min/g
9,O=S(=O)(c1cc(F)cc(F)c1)c1cnc2cc(F)ccc2c1-c1ccc(Cl)cc1,0.03 mL/min/g
10,O=S(=O)(c1cc(F)cc(F)c1)c1cnc2cc(F)ccc2c1-c1cccc(Cl)c1,0.22 mL/min/g
11,COc1cccc(-c2c(S(=O)(=O)c3cccc(C#N)c3)cnc3cc(F)ccc23)c1,1.83 mL/min/g
12,COc1ccc(S(=O)(=O)c2cnc3cc(F)ccc3c2-c2ccc(F)cc2)cc1,1.71 mL/min/g
13,COc1ccc(S(=O)(=O)c2cnc3cc(F)ccc3c2-c2ccc(F)cc2)cc1Cl,1.29 mL/min/g
14,O=S(=O)(c1ccc(F)c(Cl)c1)c1cnc2c(F)cccc2c1-c1cccc(F)c1,1.23 mL/min/g
15,N#Cc1cccc(S(=O)(=O)c2cnc3c(F)cccc3c2-c2ccccc2F)c1,0.66 mL/min/g
16,N#Cc1cccc(S(=O)(=O)c2cnc3c(F)cccc3c2-c2cccc(Cl)c2)c1,1.11 mL/min/g
17,COc1ccc(-c2c(S(=O)(=O)c3cc(Cl)cc(Cl)c3)cnc3cc(F)ccc23)cc1,1 mL/min/g
18,N#Cc1cccc(S(=O)(=O)c2cnc3cc(F)ccc3c2-c2cccc(F)c2)c1,0.78 mL/min/g
19,COc1ccc(-c2c(S(=O)(=O)c3cccc(F)c3)cnc3cc(F)ccc23)cc1,1.89 mL/min/g
20,COc1ccc(S(=O)(=O)c2cnc3c(F)cccc3c2-c2cccc(Cl)c2)cc1,2.75 mL/min/g
21,COc1ccc(S(=O)(=O)c2cnc3cc(F)ccc3c2-c2cccc(F)c2)cc1Cl,2.08 mL/min/g
22,COc1ccc(-c2c(S(=O)(=O)c3cc(F)cc(F)c3)cnc3c(F)cccc23)cc1,2.59 mL/min/g

row,Structure (SMILES),CLint
1,O=S(=O)(c1cccc(F)c1)c1cnc2c(F)cccc2c1-c1cccc(Cl)c1,0.56 mL/min/g
2,O=S(=O)(c1ccc(F)c(Cl)c1)c1cnc2c(F)cccc2c1-c1cccc(Cl)c1,0.18 mL/min/g
3,N#Cc1cccc(S(=O)(=O)c2cnc3cc(F)ccc3c2-c2ccccc2F)c1,1.39 mL/min/g
4,COc1ccc(-c2c(S(=O)(=O)c3cccc(F)c3)cnc3c(F)cccc23)cc1,2.48 mL/min/g
5,O=S(=O)(c1cc(Cl)cc(Cl)c1)c1cnc2cc(F)ccc2c1-c1cccc(Cl)c1,0.93 mL/min/g
6,COc1cccc(-c2c(S(=O)(=O)c3ccc(C)c(F)c3)cnc3c(F)cccc23)c1,4.02 mL/min/g
7,O=S(=O)(c1ccc(F)c(Cl)c1)c1cnc2cc(F)ccc2c1-c1cccc(Cl)c1,0.66 mL/min/g
8,Cc1ccc(S(=O)(=O)c2cnc3cc(F)ccc3c2-c2ccc(F)cc2)cc1C,9.25 mL/min/g
9,COc1ccc(-c2c(S(=O)(=O)c3cc(Cl)cc(Cl)c3)cnc3c(F)cccc23)cc1,2.11 mL/min/g
10,O=S(=O)(c1ccc(F)c(F)c1)c1cnc2c(F)cccc2c1-c1ccc(F)cc1,0.78 mL/min/g
11,O=S(=O)(c1ccc(F)c(Cl)c1)c1cnc2cc(F)ccc2c1-c1ccccc1F,1.07 mL/min/g
12,COc1cccc(S(=O)(=O)c2cnc3cc(F)ccc3c2-c2cccc(Cl)c2)c1,2.97 mL/min/g
13,O=S(=O)(c1cccc(F)c1)c1cnc2c(F)cccc2c1-c1ccccc1F,0.21 mL/min/g
14,O=S(=O)(c1cc(F)cc(F)c1)c1cnc2c(F)cccc2c1-c1ccccc1F,0.09 mL/min/g
15,COc1cccc(-c2c(S(=O)(=O)c3cc(F)cc(F)c3)cnc3c(F)cccc23)c1,2.76 mL/min/g
16,O=S(=O)(c1cc(Cl)cc(Cl)c1)c1cnc2c(F)cccc2c1-c1ccccc1F,0.44 mL/min/g
17,COc1cccc(-c2c(S(=O)(=O)c3ccc(F)cc3)cnc3c(F)cccc23)c1,2.23 mL/min/g
18,COc1ccc(-c2c(S(=O)(=O)c3ccc(F)c(Cl)c3)cnc3cc(F)ccc23)cc1,1.08 mL/min/g
19,O=S(=O)(c1ccc(F)c(Cl)c1)c1cnc2c(F)cccc2c1-c1ccc(Cl)cc1,0.01 mL/min/g
20,O=S(=O)(c1ccc(F)c(F)c1)c1cnc2cc(F)ccc2c1-c1ccccc1F,0.79 mL/min/g

# More lines, now with the values ahead:
row,CLint,Structure (SMILES)
1,0.92 mL/min/g,COc1ccc(-c2c(S(=O)(=O)c3cccc(C#N)c3)cnc3cc(F)ccc23)cc1
2,4.01 mL/min/g,Cc1ccc(S(=O)(=O)c2cnc3cc(F)ccc3c2-c2cccc(Cl)c2)cc1C
3,0.24 mL/min/g,O=S(=O)(c1cccc(F)c1)c1cnc2cc(F)ccc2c1-c1cccc(F)c1
4,1.18 mL/min/g,COc1ccc(-c2c(S(=O)(=O)c3ccc(OC)cc3)cnc3cc(F)ccc23)cc1
5,1.14 mL/min/g,O=S(=O)(c1cccc(F)c1)c1cnc2c(F)cccc2c1-c1cccc(F)c1
6,1.77 mL/min/g,COc1cccc(-c2c(S(=O)(=O)c3ccc(F)c(F)c3)cnc3cc(F)ccc23)c1
7,0.6 mL/min/g,O=S(=O)(c1ccc(F)c(F)c1)c1cnc2cc(F)ccc2c1-c1cccc(F)c1
8,2.94 mL/min/g,COc1ccc(S(=O)(=O)c2cnc3cc(F)ccc3c2-c2cccc(F)c2)cc1
9,1.71 mL/min/g,COc1cccc(-c2c(S(=O)(=O)c3ccc(OC)c(Cl)c3)cnc3cc(F)ccc23)c1
10,2.12 mL/min/g,COc1ccc(-c2c(S(=O)(=O)c3ccc(F)c(F)c3)cnc3c(F)cccc23)cc1
11,1.2 mL/min/g,O=S(=O)(c1cc(Cl)cc(Cl)c1)c1cnc2c(F)cccc2c1-c1cccc(Cl)c1
12,0.78 mL/min/g,O=S(=O)(c1cc(Cl)cc(Cl)c1)c1cnc2c(F)cccc2c1-c1ccc(Cl)cc1
13,2.6 mL/min/g,COc1cccc(-c2c(S(=O)(=O)c3cccc(F)c3)cnc3c(F)cccc23)c1
14,2.33 mL/min/g,Cc1ccc(S(=O)(=O)c2cnc3cc(F)ccc3c2-c2ccc(F)cc2)cc1F
15,0.19 mL/min/g,O=S(=O)(c1ccc(F)c(Cl)c1)c1cnc2c(F)cccc2c1-c1ccc(F)cc1
16,1.05 mL/min/g,COc1ccc(S(=O)(=O)c2cnc3c(F)cccc3c2-c2ccc(Cl)cc2)cc1
17,0.98 mL/min/g,O=S(=O)(c1cccc(F)c1)c1cnc2cc(F)ccc2c1-c1ccc(Cl)cc1

row,CLint,Structure (SMILES)
1,1.56 mL/min/g,O=S(=O)(c1ccc(F)cc1)c1cnc2c(F)cccc2c1-c1cccc(F)c1
2,2.2 mL/min/g,Cc1ccc(S(=O)(=O)c2cnc3c(F)cccc3c2-c2ccc(Cl)cc2)cc1F
3,0.41 mL/min/g,Cc1ccc(S(=O)(=O)c2cnc3cc(F)ccc3c2-c2cccc(F)c2)cc1F
4,3.92 mL/min/g,Cc1ccc(S(=O)(=O)c2cnc3c(F)cccc3c2-c2cccc(F)c2)cc1F
5,0.95 mL/min/g,O=S(=O)(c1ccc(F)cc1)c1cnc2cc(F)ccc2c1-c1cccc(F)c1
6,1.39 mL/min/g,O=S(=O)(c1ccc(F)c(F)c1)c1cnc2c(F)cccc2c1-c1ccccc1F
7,0.08 mL/min/g,N#Cc1cccc(S(=O)(=O)c2cnc3c(F)cccc3c2-c2ccc(Cl)cc2)c1
8,2.12 mL/min/g,Cc1ccc(S(=O)(=O)c2cnc3ccccc3c2-c2ccc(Cl)cc2)cc1
9,1.34 mL/min/g,O=S(=O)(c1ccc(F)cc1)c1cnc2cc(F)ccc2c1-c1ccc(F)cc1
10,1.13 mL/min/g,O=S(=O)(c1ccc(F)c(F)c1)c1cnc2c(F)cccc2c1-c1cccc(Cl)c1
11,0.62 mL/min/g,O=S(=O)(c1cccc(F)c1)c1cnc2c(F)cccc2c1-c1ccc(Cl)cc1
12,2.41 mL/min/g,COc1ccc(-c2c(S(=O)(=O)c3ccc(F)cc3)cnc3c(F)cccc23)cc1
13,2.13 mL/min/g,Cc1ccc(S(=O)(=O)c2cnc3cc(F)ccc3c2-c2cccc(Cl)c2)cc1F
14,3.37 mL/min/g,Cc1ccc(S(=O)(=O)c2cnc3ccccc3c2N2CCOCC2)cc1C
15,1.21 mL/min/g,O=S(=O)(c1ccc(F)cc1)c1cnc2c(F)cccc2c1-c1cccc(Cl)c1
16,3.27 mL/min/g,COc1ccc(-c2c(S(=O)(=O)c3ccc(C)c(F)c3)cnc3c(F)cccc23)cc1
17,3.36 mL/min/g,COc1cccc(S(=O)(=O)c2cnc3cc(F)ccc3c2-c2cccc(F)c2)c1

# Tested on: Liver
# Test: Intrinsic clearance in rat liver microsomes at 2.5 uM assessed per gram of liver
# Format: ADME, microsome
row,Structure (SMILES),CLint
1,Cc1ccc(S(=O)(=O)c2cnc3ccccc3c2-c2ccc(Cl)cc2)cc1,17.5 mL/min/g
2,Cc1ccc(S(=O)(=O)c2cnc3ccccc3c2N2CCOCC2)cc1C,18 mL/min/g
